Laboratory results from US10101319B2, “Methods of detecting plasmodium infection” (Commonwealth Scientific and Industrial Research Organisation, priority 2013, dated 2018).

Experiments:
P. falciparum = conditions: 13 evaluable volunteers; cited from earlier work
Plasmodium falciparum = assay: GC-MS analysis of exhaled breath volatiles and PCR parasitaemia, Cohort 1, induced blood stage malaria, treated with OZ439; format: in vivo, human; conditions: Cohort 1 compared with Cohort 2 (slower acting bisquinoline 4-aminoquinoline)
Description: This research was a controlled study using a blood stage Plasmodium falciparum (BSPC) inoculum challenge to characterize the efficacy of two anti-malaria drugs against early Plasmodium falciparum blood stage infection. Investigation of breath volatiles was an “add-on” to the anti-malarial efficacy studies. The study was conducted in two cohorts (n=8 for Cohort 1 and n=7 for Cohort 2) using different anti-malaria drugs. The anti-malaria drug investigated in Cohort 1 was OZ439 and the drug used in Cohort 2 was Piperaquine. OZ439, as an artemisin derivative, is rapidly absorbed, acts rapidly and is short-lived in the body. Piperaquine is absorbed slowly and has a long half-life in the body. […]
Each participant in the cohort was inoculated on Day 0 with ˜1,800 viable Plasmodium falciparum-infected human erythrocytes administered intravenously. On an outpatient basis, participants were monitored daily (AM) or morning (AM) and evening (PM), from day 3 until PCR positive for presence of malaria parasites, for adverse events and the unexpected early onset of symptoms, signs or parasitological evidence of malaria.
On the day designated for commencement of treatment, as determined by qPCR results (usually Day7/8 AM), participants were admitted to the study unit and confined for safety monitoring and anti-malaria drug administration with parasite load and drug levels being monitored. […]

Molecule: artemether-lumefantrine
- mean parasite reduction ratio (P. falciparum): 759

Molecule: c1cc([C@H]2CC[C@]3(CC2)OO[C@]2(O3)C3CC4CC(C3)CC2C4)ccc1OCCN1CCOCC1 [OZ439]
- Decline in parasitaemia and thioether levels after drug (Plasmodium falciparum): faster decline in parasitaemia and thioether levels

Molecule: atovaquone-proguanil
- mean parasite reduction ratio (P. falciparum): 17
